According to patent publication US5376658A, “5,10-methylene-tetrahydrofolate as a modulator of a chemotherapeutic agent” (priority 1993, dated 1994):
Read-outs that look alike come from different tables or passages of the source.

How the values were obtained:
[1] = humans; cited from earlier work
L. casei TS-[3H]FdUMP = biological target: T1, L. casei TS-[3H]FdUMP (Lacticaseibacillus casei, UniProt P00469); test: TS-[3H]FdUMP-folate ternary complex binding assay
T1 sequence (P00469 1-316): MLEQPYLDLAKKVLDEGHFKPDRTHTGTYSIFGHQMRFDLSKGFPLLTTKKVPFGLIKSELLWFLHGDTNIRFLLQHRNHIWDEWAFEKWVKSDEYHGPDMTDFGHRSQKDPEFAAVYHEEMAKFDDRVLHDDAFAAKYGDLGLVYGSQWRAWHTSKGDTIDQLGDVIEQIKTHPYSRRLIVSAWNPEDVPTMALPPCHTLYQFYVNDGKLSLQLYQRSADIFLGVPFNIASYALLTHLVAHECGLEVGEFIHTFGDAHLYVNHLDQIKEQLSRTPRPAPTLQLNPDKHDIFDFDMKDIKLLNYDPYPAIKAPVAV
Description: The CH2 FH4 was prepared as the racemic (6R, S) material from (6R, S)-FH4 and excess formaldehyde, and DEAE-column isolation as described in FIG. 1. This preparation was essentially free of free formaldehyde based on colorimetric assay of bulk material (Nash, Biochem. J. 55:416-21 (1953)).
At all concentrations (total assays volume 150 μl ), excess formaldeyde was required to obtain maximal binding (which was still only 19.3% of stoichiometric binding). A notable effect was the increasing need for formaldehyde addition with increasing dilution, to obtain maximal CH2 FH4 assay recovery.
TS[^3 H]FdUMP-folate ternary complex formation without formaldehyde
addition was 38.5% of the value for the natural (6R)CH2 FH4 wit
6 mM formaldehyde added. (About 1 pmole of parent CH2 FH4 was
^b Only 11.8 ± 7.9% of maximal L. casei TS[^3 H]FdUMP-folate
ternary complex formation (using 6 mM formaldehyde concentration) which i
(§1) The unnatural diastereomer, (6S)-CH2 FH4 prepared by DEAE-column,potassium bicarbonate separation from the natural diasteromer as described in Example 8, was dissolved in 0.2M Tris-HCl buffer, pH 7.0, containing sodium ascorbate (100 mM) and 2-mercaptoethanol. This preparation was from the same lot of material described in Example 8. As noted in the footnote of Table VII, in the absence of supplemental formaldehyde, the yield of dextrancharcoal isolated complex was 38.5% of the value for the natural (6R)-CH2 FH4 (with added 6 mM formaldehyde).

[2] = tested on: transplanted colon cancer; test: Comparison of natural and unnatural CH2 FH4 diastereomers in rats bearing transplanted colon cancer; assay type: in vivo, rat; details: 15 mg/kg, Day 17, no fluorinated pyrimidine
Description: A study has been completed, for comparison of natural (6R)-CH2 FH4 and unnatural (6S)-CH2 FH4 diastereomers. The preparation of the two forms was done as described by Kisliuk, et al., Cancer Treat. Rep. 61:647-50 (1977), using DEAE-cellulose column chromatography, with elution by potassium bicarbonate buffer. The two separate major peaks were individually pooled, lyophilized to dryness, and used for injection. As in the original detailed description of the method of Kisliuk, et al. (Biochem. 20:929-934), the methylene content was substoichiometric with tetrahydrofolate (FH4). That is, methylene units were present in apparently lower concentration than FH4 concentrations.
Rats bearing the transplanted colon cancer, as described in Example 4 and in Carlsson, et al., Anticancer. Res. 10:813-816, 1991, were treated with either the (6R)-CH2 FH4 or the (6S)-CH2 FH4, formulated and injected according to the methods described in Table IV, except that the injected amounts were 15 mg/kg per dose.
At Day 17, the rats were sacrificed, and the tumors were measured for both volume end weight. Volumes were calculated by the equation for an ellipsoid in revolution, V=(4/3)πab^2 were a=the long diameter/2 and b=the perpendicular short diameter/2.
The filled circles are the weights and volumes of tumors of rats treated with the unnatural (6S)-CH2 FH4 diastereomer (mostly (6R)-FH4 material in dilute solution and blood); the triangles are results for the natural (6R)-CH2 FH4 (mostly (6S)-FH4); and the open circles, control non-treated tumors. It is emphasized here that no fluorinated pyrimidine was used, just the folate injections.

L. casei TS = biological target: T2, L. casei TS (Lacticaseibacillus casei, UniProt P00469); test: L. casei/dUMP spectrophotometric cofactor assay; assay type: biochemical
T2 construct: spectrophotometric cofactor assay with dUMP
T2 sequence (P00469 1-316): T1 sequence (P00469 1-316)
Description: CH2 FH4 as the equal mixture of diastereomers (optical isomers or enantiomers at the C6-position; both diastereomers are of the natural L-configuration at the alpha-carbon position of the glutamate moiety) was prepared from (6R,S)-tetrahydrofolic acid, commercially available from Sigma, in the examples described below. The method of synthesis has been described previously (C. P. Spears and B. Gustavsson, Adv. Exp. Med. Biol. 244:98-104 (1988)). To (6R, S)-tetrahydrofolate (6R, S-FH4) powder, (100 mg) is added 360 μL of 1.0M Na Ascorbate, pH 6.5, 68 μL of 37% (w/w) formaldehyde (CH2 O), and 16 mL phosphate buffer, pH 7.0. A 10-min room temperature incubation allows completion of formation of (6R,S)-CH2 FH4. This material is applied to a DEAE-cellulose column using a modification of a well-known procedure (Kaufman et al., J. Biol. Chem. 238:1498-1500 (1963)). A step elution with NH4 HCO3 buffers of increasing concentration and pH, leads to isolation of CH2 FH4 in the last pooled fraction. […] CH2 FH4, prepared with [^14 C]CH2 O as described previously (Moran et al. Proc. Natl. Acad. Sci. USA 76:1456-60, 1979). […]

TS [3] = biological target: T3, TS (Homo sapiens, UniProt P04818); test: TS activity in intact CCRF-CEM human lymphoblast cells by tritiated water release from [5-3H]deoxyuridine; assay type: cell-based; details: for tritiated water production: 48 μM; for remaining activity at 48 µM: read-out: tritiated water production, % of control
T3 construct: activity of TS in the intact cells; endogenous in cells; host or cells: CCRF-CEM human lymphoblast cells
T3 sequence (P04818 whole entry): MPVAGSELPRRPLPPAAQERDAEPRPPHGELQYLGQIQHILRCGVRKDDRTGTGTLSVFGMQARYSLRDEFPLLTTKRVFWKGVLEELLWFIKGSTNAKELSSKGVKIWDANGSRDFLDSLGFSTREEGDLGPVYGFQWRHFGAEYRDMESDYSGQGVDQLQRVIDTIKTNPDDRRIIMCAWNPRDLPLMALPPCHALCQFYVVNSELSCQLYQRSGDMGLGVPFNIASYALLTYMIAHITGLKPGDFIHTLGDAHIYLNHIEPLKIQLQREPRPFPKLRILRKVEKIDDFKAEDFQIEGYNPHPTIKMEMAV
Description: as §1
Separate cultures tubes at 37° C. with 1 ml each of CCRF-CEM human lymphoblast cells, 4.6×10^5 cells/ml, in exponential log phase growth were exposed to the unnatural diastereomer, (6R)-FH4 (made up from (6S)-CH2 FH4, 1.56 mM stock solution, with 32 microliters added to each ml of cells), 48 μM final concentration. Cells were incubated for 30, 60, and 120 minutes of drug exposure, prior to addition of [5-^3 H]deoxyuridine (150,000 CPM of approx. 18-20 Ci/mmo. spec. act.) and 10 min. 37° C. incubation prior to 3% charcoal addition for isolation of tritiated water. The amount of tritiated water is proportional to the activity of TS in the intact cells (N. Kundu et al., J. Med. Chem. 33:1975-79 (1990)).

[4] = biological target: T4, thymidylate synthase (TS) (Mus musculus, UniProt P07607); test: TS inhibition in murine colon carcinoma tumor CA51 (Tumor 51) after i.p. 5-FU with or without CH2 FH4; assay type: in vivo; details: for Free TS / inhibition at 80 mg/kg: 5-FU 80 mg/kg i.p.; for Free TS: CH2 FH4 27 mg/kg in (6R), not corrected; for inhibition at 80 mg/kg: mouse, ip, baseline total TS 10.00 pmol/g
T4 construct: [6-3H]FdUMP titration of free TS
T4 sequence (P07607 whole entry): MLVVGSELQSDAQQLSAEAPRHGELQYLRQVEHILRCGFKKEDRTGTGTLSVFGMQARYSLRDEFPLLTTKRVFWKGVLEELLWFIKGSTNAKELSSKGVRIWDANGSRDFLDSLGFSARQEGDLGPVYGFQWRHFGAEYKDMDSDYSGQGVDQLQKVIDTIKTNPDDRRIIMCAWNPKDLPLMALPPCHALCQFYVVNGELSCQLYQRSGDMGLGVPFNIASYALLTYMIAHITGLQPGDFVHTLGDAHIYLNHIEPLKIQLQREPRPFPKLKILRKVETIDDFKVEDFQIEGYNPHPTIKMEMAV
Description: (6R, S)-CH2 FH4 was prepared by the DEAE-cellulose column procedure, described above, using step-elution of the material as previously reported for purification of nucleotides (Moran et al., Proc. Natl. Aca. Sci. USA 76:1456-60 (1979)). […] Because of the high formaldehyde, this solution was over 2 mM in CH2 FH4, with less FH4 present as the solution isomer. After 20 min at room temperature, this solution was applied to a 1×3-cm DEAE-cellulose column; in the last step, the 500 mM NH4HCO3 (pH 8.0) fraction (30 mL) was pooled, lyophilized to dryness, and stored under vacuum in glass ampoules. This fraction contains both diastereomers of CH2 FH4.
On the day of reconstituting the above CH2 FH4, mice bearing subcutaneous murine colon carcinoma Tumor 51 were administered intraperitoneal (i.p.) 5-FU, with or without concomitant i.p. CH2 FH4 by separate injection. The 5-FU was given at a dose of 1.6 mg per mouse, about 80 mg/kg. The CH2 FH4 was given at a dose of 0.5 mL of the 2.4 mM material ([…]), above. The in vivo methodologies were essentially as had previously been described (C. P. Spears, et al., Cancer Res. 42:450-56 (1982)). […] The levels of apparent free TS in tumors of mice receiving CH2 FH4 concomitant with 5-FU were at, or below, that level due to exchange-labeling of endogenous TS-FdUMP-folate ternary complexes in the cytosolic extracts. […] This is exactly the qualitative difference between sensitivity and resistance to 5-FU previously established (see Spears et al., Cancer Res. 42:450-52 (1982)).

[5] = tested on: hepatic colonic carcinoma; test: Tumor weight in rats bearing transplanted hepatic colonic carcinoma; assay type: in vivo, rat; details: Day 17 after transplantation; 30 mg/kg each; average of 3 rats; control 5.84
Description: (§2) The present inventors have considerable experience with this model, and the antitumor effects of 5-FU shown are typical results, as are the TS and folate assays of control and 5-FU-only-treated rats. […] In fact, the "free TS" levels in the (6R,S)-FH4 -only-treated rats were the lowest of all arms of the study.
>94% by HPLC). The (6 R,S)FH 4 was weighed, dissolved in normal
saline, and injected daily by tail vein administration using the airfree
Protector device to prevent oxidative destruction of the folate.
(§3) ^b Inoculation of 1 × 10^6 viable colon tumor
(§4) (nitrosoguanidineinduced) cells under the liver capsule on Day 1 (Carlsso
(§5) et al., Anticancer Res. 10:813-16 (1990)). Animals sacrificed on Day 17
(§6) for excision of single liver tumor nodules for pharmacodynamic studies.

TS [6] = test: TS assay in liver tumors of rats bearing transplanted hepatic colonic carcinoma; assay type: in vivo, rat; details: 30 mg/kg each; 24 h after last injection; control 18.96
Description: as §2, §3, §4, §5, §6
(§7) ^d Assays done as described (Spears et al. Adv. Exp. Med. Biol.

[7] = tested on: 5,10-CH2 FH4 and FH4 levels in liver tumor; test: Folate assay (5,10-CH2 FH4 and FH4) in liver tumors of rats; assay type: in vivo, rat; details: 30 mg/kg each, 24 h after last injection
Description: as §2, §3, §4, §5, §6, §7

[8] = biological target: T4, thymidylate synthase (TS); details: murine colon cancer; cited from earlier work

For `C=O` [CH2 O, formaldehyde], the “oral LDLo (lowest lethal dose)” value [1] is given as 36 mg/kg.
For `Nc1nc2c(c(=O)[nH]1)N1CN(c3ccc(C(=O)N[C@@H](CCC(=O)O)C(=O)O)cc3)C[C@@H]1CN2` [(6S)-CH2 FH4], the “TS-[3H]FdUMP-ternary complex yield, % of value for natural (6R)-CH2 FH4 with 6 mM formaldehyde” value (L. casei TS-[3H]FdUMP; in the presence of formaldehyde) was 23.3%, the “TS-[3H]FdUMP-folate ternary complex formation, % of value for natural (6R)-CH2 FH4 with 6 mM formaldehyde” value (L. casei TS-[3H]FdUMP; without formaldehyde addition) was 38.5% and the “Tumor volume ± SE” value ([2]; control 7.81) was 0.74. For the same compound, the “Tumor weight ± SE” value ([2]; control 7.93) was 2.14, the cofactor activity (L. casei TS) was “No cofactor activity” and the tritiated water production (TS [3]; 30 min exposure, control 2566) was 2004 CPM. For the same compound, the tritiated water production (TS [3]; 60 min exposure, control 2662) was 1750 CPM, the tritiated water production (TS [3]; 120 min exposure, control 2902) was 1146 CPM and the remaining activity at 48 µM (TS [3]; CCRF-CEM, 30 min) was 78.1%. For the same compound, the remaining activity at 48 µM (TS [3]; CCRF-CEM, 60 min) was 65.7%, the remaining activity at 48 µM (TS [3]; CCRF-CEM, 120 min) was 39.5% and the inhibition at 48 µM (TS [3]; CCRF-CEM, two hour time point) was 60.5%.
For `O=c1[nH]cc(F)c(=O)[nH]1` [5-FU, 5-Fluorouracil], the “Free TS” value ([4]; 1 h) was 1.67 pmol/g, the “Free TS” value ([4]; 3 h) was 1.00 pmol/g and the “Free TS” value ([4]; 6 h) was 1.27 pmol/g. For the same compound, the “TS inhibition, corrected” value ([4]; minimal correction factor of 5%, average / all tumors) was 92%, the inhibition at 80 mg/kg ([4]; read-out: % Inhibition (TS), 1 h) was 83.3% and the inhibition at 80 mg/kg ([4]; read-out: % Inhibition (TS), 3 h) was 90%. The inhibition at 80 mg/kg ([4]; read-out: % Inhibition (TS), 6 h) was 87.3%, the Tumor weight [5] was 1.03 g and the TS (TS [6]) was 9.03 p mole/g. For the same compound, the “5,10-CH2 FH4” value ([7]; control 0.69) was 4.11 nmol/g, the FH4 ([7]; control 1.18) was 2.39 nmol/g and the “TS inhibition as therapeutic mechanism” value [8] was “complete inhibition of TS”.
